The source made the active and inactive calls. No cut-off for these calls is given here.
What was measured:
Chromobacterium viscosum [1] = test: Activity of Chromobacterium viscosum lipase using p-nitrophenylbutyrate as substrate by Lineweaver-Burk plot analysis
[2] = target: T1, Lipase (Thermomyces lanuginosus) (UniProt O59952); test: Activity of Thermomyces lanuginosus lipase using p-nitrophenylbutyrate as substrate by Lineweaver-Burk plot analysis
T1 sequence (whole entry): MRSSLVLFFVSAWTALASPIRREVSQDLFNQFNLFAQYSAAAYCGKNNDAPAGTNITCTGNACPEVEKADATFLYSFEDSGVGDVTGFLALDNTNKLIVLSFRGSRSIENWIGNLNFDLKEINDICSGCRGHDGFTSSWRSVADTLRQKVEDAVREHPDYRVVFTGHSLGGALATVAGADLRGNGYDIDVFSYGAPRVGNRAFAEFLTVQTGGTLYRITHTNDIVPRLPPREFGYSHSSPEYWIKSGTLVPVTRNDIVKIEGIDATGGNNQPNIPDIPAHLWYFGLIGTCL

[3] = target: T2, Pancreatic triacylglycerol lipase (Sus scrofa) (UniProt P00591); test: Activity of porcine pancreatic lipase using p-nitrophenylbutyrate as substrate by Lineweaver-Burk plot analysis
T2 sequence (whole entry): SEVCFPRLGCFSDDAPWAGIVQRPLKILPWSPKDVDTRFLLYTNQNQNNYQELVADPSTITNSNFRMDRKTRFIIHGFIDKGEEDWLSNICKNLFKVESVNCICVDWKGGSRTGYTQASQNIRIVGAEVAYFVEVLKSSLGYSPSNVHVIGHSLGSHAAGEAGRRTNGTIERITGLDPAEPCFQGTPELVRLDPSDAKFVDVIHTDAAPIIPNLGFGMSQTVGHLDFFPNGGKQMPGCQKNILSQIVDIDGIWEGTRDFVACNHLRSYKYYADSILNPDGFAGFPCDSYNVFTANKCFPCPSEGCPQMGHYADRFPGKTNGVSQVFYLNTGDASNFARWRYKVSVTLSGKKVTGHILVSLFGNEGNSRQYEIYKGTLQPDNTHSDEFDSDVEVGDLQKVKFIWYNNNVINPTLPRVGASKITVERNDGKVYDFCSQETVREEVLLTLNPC

[4] = target: T3, Pancreatic triacylglycerol lipase (Homo sapiens) (UniProt P16233); test: Activity of human pancreatic lipase using p-nitrophenylbutyrate as substrate by Lineweaver-Burk plot analysis
T3 sequence (whole entry): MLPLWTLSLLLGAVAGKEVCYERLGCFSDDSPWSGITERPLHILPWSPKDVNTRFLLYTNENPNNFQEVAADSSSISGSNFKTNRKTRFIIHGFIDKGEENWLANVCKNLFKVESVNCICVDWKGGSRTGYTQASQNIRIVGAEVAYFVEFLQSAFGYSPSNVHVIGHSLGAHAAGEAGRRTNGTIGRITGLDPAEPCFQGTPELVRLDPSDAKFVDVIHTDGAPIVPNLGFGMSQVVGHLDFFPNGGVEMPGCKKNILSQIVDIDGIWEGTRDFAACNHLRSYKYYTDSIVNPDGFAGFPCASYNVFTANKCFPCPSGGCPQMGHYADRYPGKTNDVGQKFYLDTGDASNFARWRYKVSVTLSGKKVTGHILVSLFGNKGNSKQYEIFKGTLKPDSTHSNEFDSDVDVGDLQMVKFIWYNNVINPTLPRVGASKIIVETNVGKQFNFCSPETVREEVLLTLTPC

[5] = target: T2, Pancreatic triacylglycerol lipase (Sus scrofa); test: (§1) Inhibition of porcine pancreatic lipase using p-nitrophenylbutyrate as substrate by Dixon plot analysis
[6] = target: T4, Pancreatic triacylglycerol lipase (Sus scrofa, UniProt P00591); test: as §1
T4 sequence (P00591 whole entry): T2 sequence (whole entry)

[7] = target: T3, Pancreatic triacylglycerol lipase (Homo sapiens); test: (§2) Inhibition of human pancreatic lipase using p-nitrophenylbutyrate as substrate by Dixon plot analysis
[8] = target: T5, Pancreatic triacylglycerol lipase (Homo sapiens, UniProt P16233); test: as §2
T5 sequence (P16233 whole entry): T3 sequence (whole entry)

[9] = Solubility of the compound in buffer; assay type: physicochemical
[10] = Inhibition of Chromobacterium viscosum lipase using p-nitrophenylbutyrate as substrate by Dixon plot analysis
[11] = Discrimination ratio of Ki for porcine pancreatic lipase to Ki for Chromobacterium viscosum lipase
[12] = Discrimination ratio of Ki for human pancreatic lipase to Ki for Chromobacterium viscosum lipase
[13] = Discrimination ratio of Ki for Thermomyces lanuginosus lipase to Ki for Chromobacterium viscosum lipase
Chromobacterium viscosum [14] = test: Activity of Chromobacterium viscosum lipase using p-nitrophenylbutyrate as substrate by Lineweaver-Burk plot analysis relative to control
[15] = target: T1, Lipase (Thermomyces lanuginosus); test: Inhibition of Thermomyces lanuginosus lipase using p-nitrophenylbutyrate as substrate by Dixon pot analysis

Activity (Chromobacterium viscosum [1])	Activity [2]	Activity [3]	Activity [4]	SMILES	also measured
Active	Active	Active	Active	CCCC(=O)Oc1ccc(NC(=O)CCC(=O)N[C@@H](Cc2ccccc2)C(=O)N[C@@H](Cc2c[nH]c3ccccc23)C(N)=O)cc1	–
–	–	–	–	CCCCOc1ccc(NC(=O)CCC(=O)N[C@@H](Cc2ccc(O)cc2)C(=O)N[C@@H](Cc2ccccc2)C(N)=O)cc1	inhibition [5]: inactive; Ki [6]: 71 µM; inhibition [7]: inactive; Ki [8]: 170 µM
–	–	–	–	CCCCCCCOc1ccc(NC(=O)CCC(=O)N[C@@H](Cc2ccccc2)C(=O)N[C@@H](Cc2ccccc2)C(N)=O)cc1	solubility [9]: Insoluble; Ki [6]: 39 µM; Ki [10]: 0.37 µM
–	–	–	–	CCCCOc1ccc(NC(=O)CCC(=O)N[C@@H](Cc2ccccc2)C(=O)N[C@@H](Cc2ccc(O)cc2)C(N)=O)cc1	solubility [9]: soluble; inhibition [5]: inactive; Ki [6]: 160 µM; inhibition [7]: inactive; Ki [8]: 550 µM
–	–	–	–	NC(=O)[C@H](Cc1ccccc1)NC(=O)[C@H](Cc1ccccc1)NC(=O)CCC(=O)Nc1ccc(O)cc1	Ratio Ki [11]: > 160; Ratio Ki [12]: > 160; Ki [10]: 37 µM; Ratio Ki [13]: > 160
Active	Active	Active	Active	CCCC(=O)Oc1ccc(NC(=O)CCC(=O)N[C@@H](Cc2c[nH]c3ccccc23)C(=O)N[C@@H](Cc2c[nH]c3ccccc23)C(N)=O)cc1	–
–	–	–	–	CCCCCCCCCCOc1ccc(NC(=O)CCC(=O)N[C@@H](Cc2ccccc2)C(=O)N[C@@H](Cc2ccccc2)C(N)=O)cc1	solubility [9]: Insoluble
Active	Active	Active	Active	CCCC(=O)Oc1ccc(NC(=O)CCC(=O)N[C@@H](Cc2ccc(O)cc2)C(=O)N[C@@H](Cc2ccccc2)C(N)=O)cc1	–
–	–	–	–	CCCC(=O)Oc1ccc([N+](=O)[O-])cc1	Km (Chromobacterium viscosum [1]): 3500 µM
Active	Active	Active	Active	CCCC(=O)Oc1ccc(NC(=O)CCC(=O)N[C@@H](Cc2c[nH]c3ccccc23)C(=O)N[C@@H](Cc2ccccc2)C(N)=O)cc1	–
Active	Active	Active	Active	CCCC(=O)Oc1ccc(NC(=O)CCC(=O)N[C@@H](Cc2c[nH]c3ccccc23)C(=O)N[C@@H](Cc2ccc(O)cc2)C(N)=O)cc1	–
Active	Active	Active	Active	CCCC(=O)Oc1ccc(NC(=O)CCC(=O)N[C@@H](Cc2ccccc2)C(=O)N[C@@H](Cc2ccc(O)cc2)C(N)=O)cc1	–
Active	Active	Active	Active	CCCC(=O)Oc1ccc(NC(=O)CCC(=O)N[C@@H](Cc2ccc(O)cc2)C(=O)N[C@@H](Cc2ccc(O)cc2)C(N)=O)cc1	–
–	–	–	–	CCCCOc1ccc(NC(=O)CCC(=O)N[C@@H](Cc2ccccc2)C(=O)N[C@@H](Cc2ccccc2)C(N)=O)cc1	Ratio Ki [11]: 140; Ratio Ki [12]: 140; inhibition [5]: inactive; fold change (FC) (Chromobacterium viscosum [14]): 20; inhibition [7]: inactive; Ki [10]: 2.6 µM; Ratio Ki [13]: 84
Active	Active	Active	Active	CCCC(=O)Oc1ccc(NC(=O)CCC(=O)N[C@@H](Cc2ccc(O)cc2)C(=O)N[C@@H](Cc2c[nH]c3ccccc23)C(N)=O)cc1	–
Active	Active	Active	Active	CCCC(=O)Oc1ccc(NC(=O)CCC(=O)N[C@@H](Cc2ccccc2)C(=O)N[C@@H](Cc2ccccc2)C(N)=O)cc1	Ratio Ki [11]: > 160; Km (Chromobacterium viscosum [1]): 180 µM; Ratio Ki [12]: > 160; inhibition [5]: inactive; fold change (FC) (Chromobacterium viscosum [14]): 20; inhibition [7]: inactive; inhibition [15]: inactive; Ki [10]: 37 µM; Ratio Ki [13]: > 160

Source: ChEMBL document CHEMBL2021828, “An approach for differentiating isozymes. Construction of libraries containing short aromatic peptides as part of a method to design selective inhibitors against lipases” (Bioorg Med Chem Lett, 2012)
